Reference: paper PMC9585082, “Structural insight into the ligand binding mechanism of aryl hydrocarbon receptor” (Nature Communications, 2022)

What was measured:
dAHR PAS-B = target: T1, dAHR PAS-B (Drosophila melanogaster, UniProt O61543, M284C/Y336L); assay: label-free MST; type: binding
T1 construct: gene ss; PAS-B domain (residues 264–381)

mAHR = target: T2, mAHR (Mus musculus, UniProt P30561); assay: DRE luciferase reporter assay in HEK293T expressing mAHR (agonist at […]); type: cell-based
T2 construct: gene Ahr; full-length
T2 sequence (P30561 10-848): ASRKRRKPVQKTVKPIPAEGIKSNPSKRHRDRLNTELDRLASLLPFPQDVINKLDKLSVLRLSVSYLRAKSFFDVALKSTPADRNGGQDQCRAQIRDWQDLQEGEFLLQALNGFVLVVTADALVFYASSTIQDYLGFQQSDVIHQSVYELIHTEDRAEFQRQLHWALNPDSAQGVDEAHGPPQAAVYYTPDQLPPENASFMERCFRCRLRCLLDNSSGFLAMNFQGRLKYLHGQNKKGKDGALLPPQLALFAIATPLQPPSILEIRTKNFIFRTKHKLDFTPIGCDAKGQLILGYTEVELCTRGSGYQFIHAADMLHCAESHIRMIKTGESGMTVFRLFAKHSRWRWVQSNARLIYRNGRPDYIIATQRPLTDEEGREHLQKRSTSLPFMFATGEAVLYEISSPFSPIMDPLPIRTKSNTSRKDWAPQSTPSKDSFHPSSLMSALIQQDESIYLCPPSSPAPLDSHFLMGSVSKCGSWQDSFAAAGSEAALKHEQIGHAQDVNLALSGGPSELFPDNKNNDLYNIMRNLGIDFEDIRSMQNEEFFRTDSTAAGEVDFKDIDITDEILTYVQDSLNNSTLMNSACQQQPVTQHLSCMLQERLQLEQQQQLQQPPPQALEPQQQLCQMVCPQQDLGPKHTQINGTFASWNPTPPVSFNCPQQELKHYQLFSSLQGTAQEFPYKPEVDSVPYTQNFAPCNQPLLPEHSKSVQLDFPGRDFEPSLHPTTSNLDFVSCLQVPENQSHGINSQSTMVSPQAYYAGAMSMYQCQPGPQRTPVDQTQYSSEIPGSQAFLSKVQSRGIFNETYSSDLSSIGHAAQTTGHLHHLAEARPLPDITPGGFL
Excerpt: FICZ, βNF and BaP were supplied

T1 sequence (O61543 entry or part of it M284C/Y336L): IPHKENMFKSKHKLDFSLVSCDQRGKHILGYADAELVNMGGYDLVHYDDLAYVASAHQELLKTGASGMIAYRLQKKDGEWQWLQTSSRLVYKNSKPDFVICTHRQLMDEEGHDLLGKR

SMILES | Kd (dAHR PAS-B) | DRE luciferase reporter assay in HEK293T expressing mAHR (agonist at 200 nM) (mAHR) | DRE luciferase reporter assay in HEK293T expressing mAHR (agonist at 500 nM) (mAHR)
O=Cc1c2[nH]c3ccccc3c2cc2[nH]c3ccccc3c12 [FICZ] | ~0.8 µM | transactivation of mAHR in HEK293T cells in the presence or absence of agonists. FICZ, βNF and BaP were supplied | –
O=c1cc(-c2ccccc2)oc2ccc3ccccc3c12 [βNF] | ~0.4 µM | – | transactivation of mAHR in HEK293T cells in the presence or absence of agonists. FICZ, βNF and BaP were supplied
c1ccc2c(c1)cc1ccc3cccc4ccc2c1c34 [BaP] | – | transactivation of mAHR in HEK293T cells in the presence or absence of agonists. FICZ, βNF and BaP were supplied | –
